By IC50 is commonly meant the point on the concentration scale where inhibition reaches its midpoint.

The test system of assay [1] is CCK receptors. Description: Rat gastric emptying: reversal of CCK-delayed gastric emptying. It counts as in vivo. Particulars: CCK 100 μg/Kg i.p.; for CCK-delayed gastric emptying: ED50: IP. As to the method: Rat Gastric Emptying Protocol
A test meal for measuring gastric emptying in rats was prepared. Ten grams of methylcellulose (2% solution=15 centipoises; Aldrich Chemical Company, Milwaukee, Wisc. was added to 200ml of cold water and mixed at 20,000 rpm in a Waring blender to insure dispersion and hydration of the methylcellulose. In addition, two beef bouillon cubes (Wyler's, Columbus, Ohio) dissolved in 100 ml of warm water was added to the mixture, followed by 16 g of casein (Hammersten, Schwartz/Mann, Orangeburg, N.Y.), 8 g of powdered confectioners sugar and 8 g of cornstarch. The ingredients were mixed for two minutes at 20,000 rpm and the resultant test meal was refrigerated for 48 hours to allow trapped air to escape. Male Charles River Rats, Crl: COBS, CD (SD) BR Strain, 180-200 g body weight, were used in groups of six animals. The animals were food deprived for 24 hours prior to the experiment with access to water ad libitum. The compounds to be evaluated were prepared in a 0.5% aqueous methylcellulose solution. If insoluble, the mixture was homogenized for two minutes at 5500 rpm using a Try-R-Stir-R. The compounds were given intraperitoneally or intragastrically at a volume of 5 ml/kg, 60 minutes or 90 min, respectively, before the test meal. Control animals received only the vehicle. Cholecystokinin (100 μg/Kg, i.p.) was given 30 minutes before the test meal to delay gastric emptying by an effect elicited through CCK receptors. Sixty minutes after the test meal (2.0 ml/rat, i.g.), the rats were sacrificed by CO2 asphyxiation. The stomachs were removed intact and weighed. The stomachs were kept opened, gently rinsed with tap water, blotted dry with paper toweling, and the empty stomach weighed. The difference between the weight of the full and empty stomach is indicative of the amount of meal remaining in the stomach. The amount of meal remaining in the stomach was subtracted from the weight of 3 ml of the test meal to determine the amount of food emptied from the stomach during the test. Weight of the test meal was determined by weighing three samples (3 ml) at the beginning and three samples at the end of each experiment and calculating the mean. The mean and standard error of the amount of meal emptied were calculated for at least 5 doses of compound, and expressed as percent change from control.

The target in assay [2] is T1, CCK-B (Cavia porcellus, UniProt H0VZC5).
T1 construct: Rat pancreas or guinea pig brain was homogenized; from tissue; host or cells: guinea pig brain homogenate (membrane pellet)
T1 sequence (H0VZC5 1-426): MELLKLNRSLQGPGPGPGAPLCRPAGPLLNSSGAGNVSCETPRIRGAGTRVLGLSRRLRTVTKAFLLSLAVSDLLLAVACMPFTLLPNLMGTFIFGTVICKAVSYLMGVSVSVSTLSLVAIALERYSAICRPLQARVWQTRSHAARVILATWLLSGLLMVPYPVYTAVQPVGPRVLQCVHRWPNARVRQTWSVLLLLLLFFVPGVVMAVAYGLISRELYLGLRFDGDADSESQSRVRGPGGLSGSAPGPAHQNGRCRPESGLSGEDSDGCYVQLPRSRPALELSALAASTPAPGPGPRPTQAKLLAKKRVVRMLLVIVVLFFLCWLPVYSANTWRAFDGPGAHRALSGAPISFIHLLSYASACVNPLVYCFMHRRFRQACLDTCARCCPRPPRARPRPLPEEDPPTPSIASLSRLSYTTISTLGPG
The experiment in a line: Displacement of 125I-CCK-OP binding to guinea pig brain homogenates (CCK-B binding). The conditions noted are these: guinea pig brain membranes; for inhibition at 10 µM: read-out: CCK-B binding GP brain membranes: percent displacement of 125I-CCK-OP; for IC50: 125I-CCK-OP, read-out: CCK-B binding GP brain membranes: IC50. As to the method:
Percent displacement of ^125 I-CCK-OP binding to rat pancreatic membrane and guinea pig brain homogenates by compounds of the instant invention at different concentrations was used to quantify CCK-A and CCK-B receptor binding, respectively.
Binding of 125-CCK-OP to rat pancreas (CCK-A) and guinea pig brain (CCK-B) homogenates.
Rat pancreas or guinea pig brain was homogenized in 50 and 20 volumes, respectively, of 50 mM Tris-HCl buffer (pH 7.8 at 25° C.) with a Brinkmann polytron homogenizer. The homogenates were centrifuged twice at 50,000 x g for 20 min with an intermediate rehomogenization in fresh buffer. The final pellets were resuspended in 20 volumes (brain) or 40 volumes (pancreas) of incubation buffer [50 mM Tris-HCl, 5 mM MgCl2, 0.2% BSA, 5 mM dithiothreitol, 0.14 mg/ml bacitracin, pH 7.9 at 25° C.]. One milliliter of the final homogenate from brain or pancreas was diluted to 50 mL with incubation buffer to use in the binding assay.
Binding experiments were performed in a final volume of 1 mL in 13×100 mm borosilicate disposable culture tubes. To duplicate tubes were added 890 μL of freshly resuspended pancreas or brain homogenate; 73,000 dpm of […] (final concentration, 12 pM) and 10 μL of DMSO containing displacing agents (compounds or reference compounds, at the desired final concentrations). Nonspecific (nonsaturable) binding was determined in the presence of 1 μM unlabeled CCK-OP. After incubation for 30 min at 37° C. the binding was stopped by rapid filtration under a reduced pressure through glass fiber FPD-105 Whatman GF/B filters on Harvester and washed twice with 5 mL of ice-cold Tris buffer (50 mM Tris-HCl, pH 7.8). The radioactivity on the filters was counted in a gama counter. […] Specific binding was defined as the excess binding over that in blanks containing 1 μM unlabeled CCK-OP.
Determination of IC50 for displacing agents
For orientation: Loss of bound radioactivity is the signal in a displacement assay; it reports binding, not function.

Assay [3] concerns the target T2, CCK-A (Rattus norvegicus, UniProt P30551).
T2 sequence (P30551 1-444): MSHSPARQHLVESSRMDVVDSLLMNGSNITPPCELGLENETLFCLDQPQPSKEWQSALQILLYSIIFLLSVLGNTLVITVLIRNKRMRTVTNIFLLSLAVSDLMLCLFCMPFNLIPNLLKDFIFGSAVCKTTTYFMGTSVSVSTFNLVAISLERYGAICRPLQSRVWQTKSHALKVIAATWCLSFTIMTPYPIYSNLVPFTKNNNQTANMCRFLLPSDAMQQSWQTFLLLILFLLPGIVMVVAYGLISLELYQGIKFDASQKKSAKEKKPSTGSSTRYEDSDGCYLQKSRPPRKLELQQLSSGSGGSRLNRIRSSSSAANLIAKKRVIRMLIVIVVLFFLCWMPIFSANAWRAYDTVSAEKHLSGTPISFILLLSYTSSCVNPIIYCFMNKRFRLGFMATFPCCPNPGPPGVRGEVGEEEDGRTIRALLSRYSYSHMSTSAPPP
Description: Displacement of 125I-CCK-OP binding to rat pancreatic membranes (CCK-A binding). The conditions noted are these: for IC50: 125I-CCK-OP.

With `O=C(N[C@@H]1C(=O)N(c2ccccc2)C[C@H]1C(=O)O)c1ccc2ccccc2c1` (relative stereo) [41 trans], the “CCK-delayed gastric emptying: ED50” value in assay [1] is 3.2 mpk. In addition, the inhibition at 10 µM in assay [2] came out at 22%.

With `O=C(N[C@H]1C(=O)N(c2ccccc2F)C[C@H]1C(=O)O)c1ccc2ccccc2c1` (relative stereo) [Example 44, cis-1-(2-Fluorophenyl)-4-[(2-naphthalenylcarbonyl]amino]-5-oxo-3-pyrrolidinecarboxylic acid], in assay [1] (3 mpk IP), the “CCK-delayed gastric emptying: % Reversal @ Dose” value is 86%. In assay [1], the “CCK-delayed gastric emptying: ED50” value is on record as 1.7 mpk. Also, the inhibition at 10 µM in assay [2] came to 41%.

`O=C(N[C@H]1C(=O)N(c2ccccc2)C[C@H]1C(=O)O)c1ccc(Cl)c(Cl)c1` (relative stereo) [Example 35 (cis), cis-4-[[(3,4-dichlorophenyl)carbonyl]amino]-5-oxo-1-phenyl-3-pyrrolidinecarboxylic acid]: in assay [1] (3 mpk IP), the “CCK-delayed gastric emptying: % Reversal @ Dose” value came out at 57.9%. In addition, the inhibition at 10 µM in assay [2] came out at 35%. In addition, the IC50 in assay [3] was 58 nM.

In the case of `O=C(N[C@H]1C(=O)N(c2ccccc2)C[C@H]1C(=O)O)c1cc2ccccc2[nH]1` (relative stereo) [Example 29, cis-4-[(1H-indol-2-ylcarbonyl)amino]-5-oxo-1-phenyl-3-pyrrolidinecarboxylicacid], the “CCK-delayed gastric emptying: % Reversal @ Dose” value in assay [1] (1.0 mpk IP) was 86.3%. In assay [1], the “CCK-delayed gastric emptying: ED50” value was less than 0.1 mpk. In addition, the IC50 amounted to 5100 nM in assay [2] and 17 nM in assay [3].

With `O=C(N[C@@H]1C(=O)N(c2ccccc2)C[C@@H]1C(=O)O)c1ccc2ccccc2c1` (relative stereo) [41 cis], the “CCK-delayed gastric emptying: ED50” value in assay [1] worked out at 0.41 mpk. Besides, the inhibition at 10 µM in assay [2] was 48%. Also, in assay [3], the IC50 is 15 nM.

For `O=C(N[C@@H]1C(=O)N(c2ccccc2)C[C@@H]1C(=O)N1CCCC1)c1ccc2ccccc2c1` (relative stereo) [Example 53, cis-1-[[3-[(2-Naphthalenylcarbonyl)amino]-2-oxo-1-phenyl-4-pyrrolidinyl]carbonyl]pyrrolidine], in assay [2], the inhibition at 10 µM was 45%. The molecule also returned an IC50 in assay [3] of 750 nM.

For the molecule `CC(C)(C)OC(=O)[C@@H]1CN(c2ccccc2)C(=O)[C@@H]1NC(=O)c1ccc2ccccc2c1` (relative stereo) [1,1-Dimethylethyl cis-4-[(2-naphthalenylcarbonyl)amino]-5-oxo-1-phenyl-3-pyrrolidinecarboxylate], the inhibition at 10 µM in assay [2] turned out to be 35%. Moreover, the inhibition at 1 µM in assay [3] (@ 1.0 (uM), read-out: CCK-A binding rat pancreatic membranes: percent displacement of 125I-CCK-OP) worked out at 32%.

Regarding `O=C(N[C@H]1C(=O)N(c2ccccc2)C[C@H]1C(=O)O)c1ccc(Cl)cc1` (relative stereo) [Example 46 (cis), cis-4-[[(4-Chlorophenyl)carbonyl]amino]-5-oxo-1-phenyl-3-pyrrolidinecarboxylic acid], the results for the IC50 in assay [2] and in assay [3] were greater than 10000 nM and 1600 nM, respectively.

In the case of `O=C(N[C@@H]1C(=O)N(c2ccccc2)C[C@H]1C(=O)O)c1ccc(Cl)c(Cl)c1` (relative stereo) [Example 35 (trans), trans-4-[[(3,4-dichlorophenyl)carbonyl]amino]-5-oxo-1-phenyl-3-pyrrolidinecarboxylic acid], the IC50 is greater than 10000 nM in assay [2] and greater than 1000 nM in assay [3].

For `O=C(N[C@@H]1C(=O)N(c2ccccc2)C[C@H]1C(=O)O)c1ccc(Cl)cc1` (relative stereo) [Example 46 (trans), trans-4-[[(4-Chlorophenyl)carbonyl]amino]-5-oxo-1-phenyl-3-pyrrolidinecarboxylic acid], the IC50 is greater than 10000 nM in assay [2] and 41000 nM in assay [3].
